One substance from patent publication US8178091B2, “Compositions and methods for the treatment of respiratory disorders” (University of Washington, priority 2007, dated 2012) can be followed below.

For this test, the system named is lung fibroblasts. The test is described as follows: IGF-1 expression in lung fibroblasts. The conditions noted are these: not shown. Format: cell-based. The text has this:
IGF-1 was implicated as a fibroblast mitogen in BALF from patients with sarcoidosis (Allen et al., Am J Respir Cell Mol Biol 19:250-258 (1998)) and systemic sclerosis (Harrison et al., Clin Sci (Lond) 86:141-148 (1994)). […] In the experiments described herein, IGF-1 mediated cell survival and migration, but not proliferation of normal lung fibroblasts through IGF-1R. The prior studies used either the fetal fibroblast cell line IMR-90 or human fetal embryonic fibroblasts (HFL-1) to examine the proliferative response (Allen et al., Am J Respir Cell Mol Biol 19:250-258 (1998); Harrison et al., Clin Sci (Lond) 86:141-148 (1994)). In contrast, the studies described herein used early passage primary adult lung fibroblasts, which may account for differences in results. In addition, the mitogenic response to IGF in the earlier studies was determined by immunodepletion of IGF from BALF (Allen et al., Am J Respir Cell Mol Biol 19:250-258 (1998); Harrison et al., Clin Sci (Lond) 86:141-148 (1994)). Without wishing to be bound by theory, it is thought that activation of fibroblasts by other growth factors or cytokines such as TGFβ1 in BALF may be necessary for the pro-proliferative effect of IGF (Scarpa et al., Peptides 26:2201-2210 (2005); Danielpour and Song, Cytokine & growth factor reviews 17:59-74 (2006)).

For “TGFβ1: growth factor, mediator of fibrosis”, the “IGF-1 expression in lung fibroblasts” value is on record as “significantly upregulated IGF-1 expression”.
